Experimental data reported in US20220402862A1 (Intellia Therapeutics, Inc., priority 2019, published 2022).

Legend:
Type in all cases: physicochemical
[1] = pKa measurement of unformulated amine lipid (fluorescence, method of Jayaraman et al.); conditions: 100 μM in 0.1 M phosphate buffer, pH 2.0-12.0
Protocol: The pKa of each amine lipid was determined according to the method in Jayaraman, et al. (Angewandte Chemie, 2012) with the following adaptations. […] Lipid was diluted to 100 μM in 0.1 M phosphate buffer (Boston Bioproducts) where the pH ranged from 2.0-12.0. Fluorescence intensity was measured using excitation and emission wavelengths of 321 nm and 448 nm.

[2] = Dynamic light scattering of LNPs: Z-average diameter, number average diameter, PDI; conditions: LNP, sg:mRNA 1:1, N/P about 6, 50/9/38/3; Table 2, Experiments 2-20
Protocol: Dynamic Light Scattering (“DLS”) is used to characterize the polydispersity index (“PDI”) and size of the LNPs of the present disclosure. DLS measures the scattering of light that results from subjecting a sample to a light source. PDI, as determined from DLS measurements, represents the distribution of particle size (around the mean particle size) in a population, with a perfectly uniform population having a PDI of zero.
LNP compositions are analyzed for average particle size, polydispersity index (PDI), total RNA content, encapsulation efficiency of RNA, and zeta potential. LNP compositions may be further characterized by lipid analysis, AF4-MALS, NTA, and/or cryo-EM. Average particle size and polydispersity are measured by dynamic light scattering (DLS) using a Malvern Zetasizer DLS instrument or Wyatt NanoStar. LNP samples were diluted with PBS buffer prior to being measured by DLS. Z-average diameter which is an intensity-based measurement of average particle size is reported along with number average diameter and PDI. A Malvern Zetasizer or Wyatt NanoStar instrument is also used to measure the zeta potential of the LNP. Samples are diluted 1:17 (50 μL into 800 μL) in 0.1× PBS, pH 7.4 prior to measurement.

[3] = RNA encapsulation efficiency of LNPs (Ribogreen fluorescence assay); conditions: LNP, sg:mRNA 1:1, N/P about 6, amine lipid/DSPC/cholesterol/PEG-2k-DMG 50/9/38/3; Table 2, Experiments 2-20
Protocol: A fluorescence-based assay (Ribogreen®, ThermoFisher Scientific) is used to determine total RNA concentration and free RNA. Encapsulation efficiency is calculated as (Total RNA-Free RNA)/Total RNA. LNP samples are diluted appropriately with 1× TE buffer containing 0.2% Triton-X 100 to determine total RNA or 1× TE buffer to determine free RNA. Standard curves are prepared by utilizing the starting RNA solution used to make the compositions and diluted in 1× TE buffer +/− 0.2% Triton-X 100. Diluted RiboGreen® dye (according to the manufacturer's instructions) is then added to each of the standards and samples and allowed to incubate for approximately 10 minutes at room temperature, in the absence of light. A SpectraMax M5 Microplate Reader (Molecular Devices) is used to read the samples with excitation, auto cutoff and emission wavelengths set to 488 nm, 515 nm, and 525 nm respectively. Total RNA and free RNA are determined from the appropriate standard curves.
Encapsulation efficiency is calculated as (Total RNA-Free RNA)/Total RNA. The same procedure may be used for determining the encapsulation efficiency of a DNA-based cargo component. In a fluorescence-based assay, for single-strand DNA Oligreen Dye may be used, and for double-strand DNA, Picogreen Dye. Alternatively, the total RNA concentration can be determined by a reverse-phase ion-pairing (RP-IP) HPLC method. Triton X-100 is used to disrupt the LNPs, releasing the RNA. The RNA is then separated from the lipid components chromatographically by RP-IP HPLC and quantified against a standard curve using UV absorbance at 260 nm.

| Compound | pKa [1] | Number mean (nm) [2] [nm] | PDI [2] | Z-avg (nm) [2] [nm] | Encapsulation (%) [3] [%] |
| --- | --- | --- | --- | --- | --- |
| CCCCC/C=C\C/C=C\CCCCCCCC(=O)OCC(COC(=O)CCC(OCCCCCCCC)OCCCCCCCC)COC(=O)NCCN1CCC(O)CC1 (stereo not drawn) [Compound 49, 3-((4,4-bis(octyloxy)butanoyl)oxy)-2-((((2-(4-hydroxypiperidin-1-yl)ethyl)carbamoyl)oxy)methyl)propyl (9Z,12Z)-octadeca-9,12-dienoate] | 8.4 |  |  |  |  |
| CCCCC/C=C\C/C=C\CCCCCCCC(=O)OCC(COC(=O)CCC(OCCCCCCCC)OCCCCCCCC)COC(=O)OCC1CN(CC)C1 (stereo not drawn) [Compound 50, 3-((4,4-bis(octyloxy)butanoyl)oxy)-2-(((((1-ethylazetidin-3-yl)methoxy)carbonyl)oxy)methyl)propyl (9Z,12Z)-octadeca-9,12-dienoate] | 5.2 |  |  |  |  |
| CCCCCCCCOC(CCC(=O)OCC(COC(=O)CCCCCCCC(=O)OCCCCCC)COC(=O)OCCCN(CC)CC)OCCCCCCCC (stereo not drawn) [Compound 57, 1-(3-((4,4-bis(octyloxy)butanoyl)oxy)-2-((((3-(diethylamino)propoxy)carbonyl)oxy)methyl)propyl) 9-hexyl nonanedioate] | 6.59 | 83.41 | 0.011 | 102 | 89 |
| CCCCCCCCOC(=O)CCCCCCCC(=O)OCC(COC(=O)CCC(OCCCCCCCC)OCCCCCCCC)COC(=O)OCCCN(CC)CC (stereo not drawn) [Compound 58, 1-(3-((4,4-bis(octyloxy)butanoyl)oxy)-2-((((3-(diethylamino)propoxy)carbonyl)oxy)methyl)propyl) 9-octyl nonanedioate] | 6.4 | 72.42 | 0.029 | 89.07 | 95 |
| CCCCCCCCOC(CCC(=O)OCC(COC(=O)CCCCCCCCCCC(=O)OCCCCC)COC(=O)OCCCN(CC)CC)OCCCCCCCC (stereo not drawn) [Compound 60, 1-(3-((4,4-bis(octyloxy)butanoyl)oxy)-2-((((3-(diethylamino)propoxy)carbonyl)oxy)methyl)propyl) 12-pentyl dodecanedioate] | 6.38 | 84.46 | 0.022 | 104.2 | 97 |
| CCCCC/C=C\C/C=C\CCCCCCCC(=O)OCC(COC(=O)CCCCC(OCCCCCCCC)OCCCCCCCC)COC(=O)OCCCN(CC)CC (stereo not drawn) [Compound 62, 3-((6,6-bis(octyloxy)hexanoyl)oxy)-2-((((3-(diethylamino)propoxy)carbonyl)oxy)methyl)propyl (9Z,12Z)-octadeca-9,12-dienoate] | 6.03 | 59.35 | 0.044 | 73.46 | 98 |
| CCCCC/C=C\C/C=C\CCCCCCCC(=O)OCC(COC(=O)CCCC(=O)OC(CCCCCCCC)CCCCCCCC)COC(=O)OCCCN(CC)CC (stereo not drawn) [Compound 63, 3-(((3-(diethylamino)propoxy)carbonyl)oxy)-2-((((9Z,12Z)-octadeca-9,12-dienoyl)oxy)methyl)propyl heptadecan-9-yl glutarate] | 6.09 | 64.05 | 0.019 | 79.37 | 98 |
| CCCCC/C=C\C/C=C\CCCCCCCC(=O)OCC(COC(=O)CCCCCC(=O)OC(CCCCCCCC)CCCCCCCC)COC(=O)OCCCN(CC)CC (stereo not drawn) [Compound 64, 1-(3-(((3-(diethylamino)propoxy)carbonyl)oxy)-2-((((9Z,12Z)-octadeca-9,12-dienoyl)oxy)methyl)propyl) 7-(heptadecan-9-yl) heptanedioate] | 6.08 | 69.25 | 0.032 | 85.16 | 98 |
| CCCCC/C=C\C/C=C\CCCCCCCC(=O)OCC(COC(=O)OCCCN(CC)CC)COC(=O)C(CCCCCC)CCCCCCCC (stereo not drawn) [Compound 65, 3-(((3-(diethylamino)propoxy)carbonyl)oxy)-2-(((2-hexyldecanoyl)oxy)methyl)propyl (9Z,12Z)-octadeca-9,12-dienoate] | 5.88 | 55.76 | 0.034 | 70.19 | 98 |
| CCCCC/C=C\C/C=C\CCCCCCCC(=O)OCC(COC(=O)CC(CCCCCCCC)CCCCCCCC)COC(=O)OCCCN(CC)CC (stereo not drawn) [Compound 66, 3-(((3-(diethylamino)propoxy)carbonyl)oxy)-2-(((3-octylundecanoyl)oxy)methyl)propyl (9Z,12Z)-octadeca-9,12-dienoate] | 6.06 | 44.03 | 0.071 | 58.54 | 98 |
| CCCCC/C=C\C/C=C\CCCCCCCC(=O)OCC(COC(=O)CCCC(CCCCCCC)CCCCCCC)COC(=O)OCCCN(CC)CC (stereo not drawn) [Compound 67, 3-(((3-(diethylamino)propoxy)carbonyl)oxy)-2-(((5-heptyldodecanoyl)oxy)methyl)propyl (9Z,12Z)-octadeca-9,12-dienoate] | 6.19 | 56.56 | 0.025 | 69.85 | 99 |
| CCCCC/C=C\C/C=C\CCCCCCCC(=O)OCC(COC(=O)CCCCCC(CCCCCC)CCCCCC)COC(=O)OCCCN(CC)CC (stereo not drawn) [Compound 68, 3-(((3-(diethylamino)propoxy)carbonyl)oxy)-2-(((7-hexyltridecanoyl)oxy)methyl)propyl (9Z,12Z)-octadeca-9,12-dienoate] | 6.1 | 60.04 | 0.008 | 72.71 | 98 |
| CCCCCCCCCCOC(=O)CCCCCCCC(=O)OCC(COC(=O)CCC(OCCCCCCC)OCCCCCCC)COC(=O)OCCCN(CC)CC (stereo not drawn) [Compound 78, 1-(3-((4,4-bis(heptyloxy)butanoyl)oxy)-2-((((3-(diethylamino)propoxy)carbonyl)oxy)methyl)propyl) 9-decyl nonanedioate] | 6.11 |  |  |  |  |
| CCCCCCCCCCOC(=O)CCCCCCCC(=O)OCC(COC(=O)CCCCCC(=O)OC(CCCCCCCC)CCCCCCCC)COC(=O)NCCN(CC)CC (stereo not drawn) [Compound 81, 1-decyl 9-(3-(((2-(diethylamino)ethyl)carbamoyl)oxy)-2-(((7-(heptadecan-9-yloxy)-7-oxoheptanoyl)oxy)methyl)propyl) nonanedioate] | 6.65 |  |  |  |  |
